Experimental findings from patent US12624019B2, “Indazole derivative, and preparation method therefor and use thereof” (Leadingtac Pharmaceutical (Shaoxing) Co., Ltd., priority 2020, dated 2026) are described below.

This assay has as its target T1, IRAK4 kinase protein in THP-1 cells (Homo sapiens, UniProt Q9NWZ3).
T1 construct: endogenous in cells; host or cells: THP-1 cells
T1 sequence (Q9NWZ3 1-460): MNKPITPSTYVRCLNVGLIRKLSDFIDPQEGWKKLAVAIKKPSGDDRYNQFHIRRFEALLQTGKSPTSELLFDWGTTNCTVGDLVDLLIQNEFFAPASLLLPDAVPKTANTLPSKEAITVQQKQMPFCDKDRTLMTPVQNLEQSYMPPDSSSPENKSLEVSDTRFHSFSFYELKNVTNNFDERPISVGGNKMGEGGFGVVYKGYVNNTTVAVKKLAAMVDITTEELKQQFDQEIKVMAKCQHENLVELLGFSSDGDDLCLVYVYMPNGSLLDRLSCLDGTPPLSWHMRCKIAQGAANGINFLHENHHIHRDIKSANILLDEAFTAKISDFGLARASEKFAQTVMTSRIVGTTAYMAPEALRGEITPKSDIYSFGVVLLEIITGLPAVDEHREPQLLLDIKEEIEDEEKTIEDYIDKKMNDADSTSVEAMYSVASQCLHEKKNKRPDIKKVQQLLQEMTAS
Description: Degradation of IRAK4 in THP-1 cells by Western Blot. The following applies: 24 hours. The class given is cell-based. As for the experimental part:
Each well of the 24-well cell culture plate was inoculated with 0.95 mL THP-1 cells (stem cell bank of Chinese academy of sciences) with a cell density of 5×10^5 cells/well. The cell plate was placed in a 5% carbon dioxide incubator and cultured overnight at 37° C., then 50 μL compound in dimethyl sulfoxide was added. The final concentration of the compound was in the range of 1-3000 nM. After continuous cultivation for 24 hours, the cells were collected into a 1.5 mL centrifuge tube, centrifuged at 1000 rpm and 4° C. for 5 minutes. Cell precipitation was washed twice with 1×DPBS, resuspended cells were lysed with 200 μL lysate (cell lysate was Western and IP cell lysate (Beyotime), supplemented with 1 mM mixture of phenylmethylsulfonyl fluoride and protease inhibitor (Beyotime)), left on ice for 30 minutes, then centrifuged at 14000 g at 4° C. for 10 minutes, and the supernatant was taken to detect IRAK4 protein level by Western blot.
The total protein concentration in the supernatant of cell lysis was determined by BCA protein quantitative kit (Tiangen). According to the concentration of total protein detected by BCA, the supernatant was adjusted to […] with PBS and 5×SDS-PAGE protein loading buffer (Beyotime), bathed in water at 100° C. for 10 minutes, then placed in ice bath for 5 minutes, centrifuged at 14000 g and 4° C. for 5 minutes, and then collected as WB loading sample. Prefabricated glue (KeyGEN) was used for protein electrophoresis with a loading amount of 10 μL (total protein 2 μg). After Tris-MOPS-SDS electrophoresis solution (Adamas), 120V constant pressure electrophoresis was performed. After electrophoresis, the protein on the adhesive strip was transferred to PVDF membrane with a constant current of […] for 50 minutes. After the membrane was transferred, the membrane was added in 1×QuickBlock blocking buffer (Beyotime) and incubated for 30 minutes at room temperature. After blocking, PVDF membranes were incubated with IRAK4 primary antibody (Abcam) overnight at 4°, the membranes were washed with TBST buffer (2.4 g Tris, 8.8 g NaCl, 1.5 mL Tween 20, pH adjusted to 7.4, constant volume to 1 L) for 30 minutes, incubated with secondary antibody (Abcam) for 2 hours at room temperature, finally incubated with Clarity Western ECL Substrate (BIO-RAD) for 5 minutes for luminescence development, chemiluminescence imaging system (Clinx, chemiScope 6200 Touch) was used for development and protein mapping photography. The protein map was analyzed by Clinx chemiluminescence analysis software for grayscale values. Using the formula: grayscale correction value=(target protein grayscale value/corresponding internal reference grayscale value)×[…], the grayscale correction value of each sample was calculated. The degradation rate was calculated by comparing with the grayscale correction value of the control group. Furthermore, DC50 and Dmax values of the compound were obtained by the nonlinear curve fitting with the logarithmic concentration-inhibition rate by GraphPad Prism 7.
A general note: Immunoblotting shows a protein as a band on a membrane.

As to `CC(C)(O)c1cc2nn(C3CCN(CCCC4CCN(c5ccc6c(c5)C(=O)N(C5CCC(=O)NC5=O)C6=O)CC4)CC3)cc2cc1NC(=O)c1cccc(C(F)(F)F)n1` (stereo not shown) [Example 6, N-(2-(1-(3-(1-(2-(2,6-dioxopiperidin-3-yl)-1,3-dioxoisoindolin-5-yl)piperidin-4-yl)propyl)piperidin-4-yl)-6-(2-hydroxyprop-2-yl)-2H-indazol-5-yl)-6-(trifluoromethyl) pyridinecarboxamide], the DC50 (commonly the concentration giving 50% degradation) (IRAK4 degradation in THP-1 cells, read-out: WB DC50) is 11.9 nM. The Dmax (as a rule, the largest share of the target that was removed) (IRAK4 degradation in THP-1 cells, read-out: WB Dmax) was 90.9%. The “WB D(%) (300 nM)” value (degradation percentage of IRAK4 in THP-1 cells, compound 300 nM) is reported as 89.5%. Further, the “WB D(%) (1000 nM)” value (degradation percentage of IRAK4 in THP-1 cells, compound 1000 nM) amounted to 87.3%.
